The record followed here is patent US9290457B2, “Substituted dihydropyrimidinones and their use as inhibitors of neutrophil elastase activity” (Boehringer Ingelheim International GmbH, priority 2014, dated 2016).

In one data set the test system is Caco-2 cells. The data set can be described thus: Drug transport across human Caco-2 cells. Type of data set: in vitro ADME. Particulars: pH 7.2, 37° C.; for PEAB: apical-to-basal; for PEBA: basal-to-apical. An excerpt: (§1) Assay for Determination of Drug Transport Across Human Caco-2 Cells
(§2) The assay provides information on the potential of a compound to pass the cell membrane, on the extent of oral absorption as well as on whether the compound is actively transported by uptake and/or efflux transporters. For the measurement of permeability across polarized, confluent human cancer colon carcinoma cells 2 (Caco-2) cell monolayers grown on permeable filter supports are used as the in vitro absorption model.
(§3) Apparent permeability coefficients (PE) of the compounds across the Caco-2 monolayers are measured (pH 7.2, 37° C.) in apical-to-basal (AB) (absorptive) and basal-to-apical (BA) (secretory) transport direction. AB permeability (PEAB) represents drug absorption from the intestine into the blood and BA permeability (PEBA) drug secretion from the blood back into the intestine via both passive permeability as well as active transport mechanisms mediated by efflux and uptake transporters that are expressed on the Caco-2 cells. The compounds are assigned to permeability/absorption classes by comparison of the AB permeabilities with the AB permeabilities of reference compounds with known in vitro permeability and oral absorption in the human. Identical or similar permeabilities in both transport directions indicate passive permeation, vectorial permeability points to additional active transport mechanisms. […] Active transport is concentration-dependently saturable.
(§4) Caco-2 cells (1-2*10^5 cells/cm^2 area) are seeded on filter inserts (Costar transwell polycarbonate or PET filters, 0.4 μm pore size) and cultured (DMEM) for 10 to 25 days. Compounds are dissolved in appropriate solvent (like DMSO, 1-20 mM stock solutions). Stock solutions are diluted with HTP-4 buffer (128.13 mM NaCl, 5.36 mM KCl, 1 mM MgSO4, 1.8 mM CaCl2, 4.17 mM NaHCO3, 1.19 mM Na2HPO4x7H2O, 0.41 mM NaH2PO4xH2O, 15 mM HEPES, 20 mM glucose, pH 7.2) to prepare the transport solutions (typically 10 μM compound, final DMSO<=0.5%). The transport solution (TL) is applied to the apical or basolateral donor side for measuring A-B or B-A permeability (3 filter replicates), respectively. The receiver side contains HTP-4 buffer supplemented with 2% BSA. Samples are collected at the start and end of experiment from the donor and at various time intervals for up to 2 hours also from the receiver side for concentration measurement by LC-MS/MS or scintillation counting. Sampled receiver volumes are replaced with fresh receiver solution.
(§5) The apparent permeability coefficients (PEAB and PEBA) of selected compounds in the Caco-2 drug transport assay described above are listed in Table 5.
(In general: Passage across Caco-2 layers is used to estimate intestinal permeability.)

The nature of a further data set: Aqueous solubility. It counts as physicochemical. Particulars: McIlvaine buffer pH 6.8, 2.5% DMSO; for Aqueous solubility: 24 h; for solubility at 24 h: McIlvaine buffer with 2.5% DMSO, aqueous buffer, kinetic from dmso stock. On the procedure:
Assay for Determination of Aqueous Solubility
Starting from a 10 mM DMSO stock solution, aliquots are diluted with acetonitrile/water (1/1) and McIlvaine buffer pH 6.8, respectively. After 24 h of shaking, the solutions or suspensions are filtered and analyzed by LC-UV. The amount dissolved in buffer is compared to the amount dissolved in the acetonitrile/water (1/1) solution. Solubility is measured from 0.001 to 0.125 mg/ml at a DMSO concentration of 2.5%. If more than 90% of the compound is dissolved in buffer, the value is marked with “>”.

The target in the next data set is cytochrome P450 2C19 (Homo sapiens (Human), UniProt P33261). The data set can be described thus: Cytochrome P450 2C19 inhibition. It counts as in vitro ADME. As to conditions: human liver microsomes, Mephenytoin hydroxylation; read-out: IC50 CYP2C19 inhibition. On the procedure: Assay for Determination of Cytochrome P450 2C19 Inhibition
(§6) All assays are carried out on a robotic system in 96 well plates. The final incubation volume contains TRIS buffer (0.1 M), MgCl2 (5 mM), human liver microsomes (0.5 mg/ml), (S)-Mephenytoin (70 μM) and the test compound at five different concentrations or no compound (high control) in duplicate (e.g. highest concentration 10-50 μM with subsequent serial 1:4 dilutions). Following a short preincubation period, reactions are started with the cofactor (NADPH, 1 mM) and stopped by cooling the incubation down to 8° C. and subsequently by addition of one volume of acetonitrile. An internal standard solution—usually the stable isotope of the formed metabolite—is added after quenching of incubations. Peak area analyte (=metabolite formed) and internal standard is determined by LC-MS/MS. The resulting peak area ratio analyte to internal standard in these incubations is compared to a control activity containing no test compound.
(§7) If the inhibition of the reaction is already >50% at the lowest concentration of the test compound, the IC50 is assigned “<lowest concentration tested” (usually <0.4 μM). If the inhibition of the reaction is still <50% at the highest concentration of the test compound, the IC50 is assigned “>highest concentration tested” (usually >50 μM).

A further data set concerns the target cytochrome P450 2C8 (Homo sapiens (Human), UniProt P10632). The data set can be described thus: Cytochrome P450 2C8 inhibition. As to conditions: human liver microsomes, Amodiaquine deethylation; read-out: IC50 CYP2C8 inhibition. It counts as in vitro ADME. How it is done:
Assay for Determination of Cytochrome P450 2C8 Inhibition
as §6, with “(0.05” for “(0.5”, “Amodiaquine (1” for “(S)-Mephenytoin (70”
as §7

In data set [1] the target is hERG (human ether-a-go-go-related gene) potassium channel (Homo sapiens (Human), UniProt Q12809). Description: hERG inhibition patch clamp assay. Type of data set: cell-based. An excerpt:
Calculations: Fold induction=(Enzyme mRNA Compound)/(Enzyme mRNA Solvent Control) Inducer Potency=(Fold Compound)/(Fold Rifampicin)*100 Assay for Determination of hERG Inhibition
The inhibition of the hERG (human ether-a-go-go-related gene) potassium channel can be determined as described in Rast, G., & Guth, B. D., Journal of Pharmacological and Toxicological Methods (2014), http://dx.doi.org/10.1016/j.vasen.2014.08.001.

A short description of data set [2]: Drug transport across human Caco-2 cells. It counts as in vitro ADME. Particulars: human, Caco-2, pH 7.2, 37° C.; for Papp A→B at 10 μM: apical-to-basal, read-out: PEAB; for Papp B→A at 10 μM: basal-to-apical, read-out: PEBA.
Description: as §1, §2, §3, §4, §5

As usually defined, the Aqueous solubility is how much of the substance goes into solution per volume. Low values mean little dissolved substance, high ones much dissolved substance. The term IC50 denotes the concentration that gives 50% inhibition. As usually defined, the solubility is the concentration that dissolves in the medium under given conditions.

The structures appear in SMILES notation. Values after ≈ are worked out from the molar mass of the structure shown.

Sequence of hERG (human ether-a-go-go-related gene) potassium channel (Q12809 whole entry): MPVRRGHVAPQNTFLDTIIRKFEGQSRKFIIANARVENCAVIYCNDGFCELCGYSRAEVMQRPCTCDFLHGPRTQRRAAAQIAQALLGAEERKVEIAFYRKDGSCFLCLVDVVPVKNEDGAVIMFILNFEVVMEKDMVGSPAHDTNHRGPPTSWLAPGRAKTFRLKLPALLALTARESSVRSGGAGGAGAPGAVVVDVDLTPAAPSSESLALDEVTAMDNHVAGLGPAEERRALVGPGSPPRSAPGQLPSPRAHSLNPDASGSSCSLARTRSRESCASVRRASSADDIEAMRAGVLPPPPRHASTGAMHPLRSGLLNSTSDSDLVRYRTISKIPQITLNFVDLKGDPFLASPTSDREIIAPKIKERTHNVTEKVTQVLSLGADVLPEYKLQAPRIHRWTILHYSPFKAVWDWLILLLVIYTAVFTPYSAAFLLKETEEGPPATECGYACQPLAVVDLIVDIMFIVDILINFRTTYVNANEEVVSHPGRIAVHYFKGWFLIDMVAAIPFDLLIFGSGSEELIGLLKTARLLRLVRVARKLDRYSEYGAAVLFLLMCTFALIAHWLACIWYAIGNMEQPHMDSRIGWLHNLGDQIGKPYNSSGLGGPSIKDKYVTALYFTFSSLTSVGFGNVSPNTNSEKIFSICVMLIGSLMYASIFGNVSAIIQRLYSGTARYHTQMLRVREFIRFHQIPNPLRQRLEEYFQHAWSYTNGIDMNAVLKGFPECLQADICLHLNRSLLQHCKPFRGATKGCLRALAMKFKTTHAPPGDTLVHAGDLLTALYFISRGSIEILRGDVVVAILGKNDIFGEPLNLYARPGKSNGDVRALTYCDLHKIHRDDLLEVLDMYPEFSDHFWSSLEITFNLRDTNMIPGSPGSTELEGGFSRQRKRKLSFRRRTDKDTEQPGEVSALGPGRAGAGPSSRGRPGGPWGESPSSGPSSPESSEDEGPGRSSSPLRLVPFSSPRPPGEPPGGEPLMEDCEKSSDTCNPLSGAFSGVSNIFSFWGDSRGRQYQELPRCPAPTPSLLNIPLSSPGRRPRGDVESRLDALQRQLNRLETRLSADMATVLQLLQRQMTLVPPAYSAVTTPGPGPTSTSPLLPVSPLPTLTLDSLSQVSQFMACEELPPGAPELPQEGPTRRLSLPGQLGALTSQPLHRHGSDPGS
Sequence of cytochrome P450 2C8 (P10632 whole entry): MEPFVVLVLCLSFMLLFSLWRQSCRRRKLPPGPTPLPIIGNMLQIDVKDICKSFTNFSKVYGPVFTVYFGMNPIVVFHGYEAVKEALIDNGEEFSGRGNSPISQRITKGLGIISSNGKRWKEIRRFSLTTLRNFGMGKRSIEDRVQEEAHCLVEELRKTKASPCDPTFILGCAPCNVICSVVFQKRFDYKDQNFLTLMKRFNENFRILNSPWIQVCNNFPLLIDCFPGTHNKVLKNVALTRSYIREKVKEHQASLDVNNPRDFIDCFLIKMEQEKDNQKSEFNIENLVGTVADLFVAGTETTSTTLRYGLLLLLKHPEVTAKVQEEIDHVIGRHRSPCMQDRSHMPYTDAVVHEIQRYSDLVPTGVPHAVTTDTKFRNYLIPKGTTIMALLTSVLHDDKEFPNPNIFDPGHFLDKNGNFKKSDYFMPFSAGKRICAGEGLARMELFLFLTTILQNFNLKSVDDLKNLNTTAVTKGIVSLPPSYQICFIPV
Sequence of cytochrome P450 2C19 (P33261 whole entry): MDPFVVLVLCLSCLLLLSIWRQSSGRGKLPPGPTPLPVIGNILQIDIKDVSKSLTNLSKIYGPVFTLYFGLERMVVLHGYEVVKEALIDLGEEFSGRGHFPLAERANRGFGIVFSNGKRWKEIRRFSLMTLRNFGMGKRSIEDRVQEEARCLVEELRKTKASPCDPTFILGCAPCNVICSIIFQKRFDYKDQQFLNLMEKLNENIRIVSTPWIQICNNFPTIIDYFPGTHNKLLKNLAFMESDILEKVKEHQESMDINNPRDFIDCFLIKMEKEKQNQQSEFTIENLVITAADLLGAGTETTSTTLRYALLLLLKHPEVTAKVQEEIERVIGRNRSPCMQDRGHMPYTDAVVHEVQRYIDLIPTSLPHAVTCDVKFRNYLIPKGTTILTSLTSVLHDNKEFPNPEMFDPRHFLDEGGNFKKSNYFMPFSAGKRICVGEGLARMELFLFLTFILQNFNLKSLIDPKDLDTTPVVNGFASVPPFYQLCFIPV

For the compound `CC(=O)C1=C(C)N(c2cccc(C(F)(F)F)c2)C(=O)N(C)C1c1ccc(C#N)cc1C(=O)NC1CC1` (stereo not shown) [Example 1.8], in the data set on Caco-2 cells, the PEAB was determined as 44 ×10⁻⁶ cm/s and the PEBA is 74 ×10⁻⁶ cm/s. The Aqueous solubility in the data set “Aqueous solubility” is 76 µg/mL.
With `CNC(=O)c1cc(C#N)ccc1[C@@H]1C(C(C)=O)=C(C)N(c2cccc(C(F)(F)F)c2)C(=O)N1C` [Example 13.1], in the data set with Caco-2 cells, the PEAB came to 33 ×10⁻⁶ cm/s. The same compound gave a PEBA in the data set with Caco-2 cells of 80 ×10⁻⁶ cm/s. The Aqueous solubility in the data set “Aqueous solubility” came out at 51 µg/mL. Moreover, the IC50 at cytochrome P450 2C19 is over 50 µM; at cytochrome P450 2C8, over 50 µM; in data set [1], over 30 µM. The hERG inhibition entry in data set [1] (@ 10 μM) is “(7% @ 10 μM)”.
For the compound `CC(=O)C1=C(C)N(c2cccc(C(F)(F)F)c2)C(=O)N(C)[C@@H]1c1ccc(C#N)cc1-c1ccc(=O)n(C)c1` [Example 16, 4-[(R)-5-Acetyl-3,6-dimethyl-2-oxo-1-(3-trifluoromethyl-phenyl)-1,2,3,4-tetrahydro-pyrimidin-4-yl]-3-(1-methyl-6-oxo-1,6-dihydro-pyridin-3-yl)-benzonitrile], in data set [2], the Papp A→B at 10 μM was 12 ×10⁻⁶ cm/s. Moreover, the Papp B→A at 10 μM in data set [2] was 120 ×10⁻⁶ cm/s. Further, in “Aqueous solubility”, the solubility at 24 h turned out to be 73 µg/mL (≈ 140 µM). Also, the IC50 at cytochrome P450 2C19 is over 50 µM; at cytochrome P450 2C8 it was over 50 µM; in data set [1], over 30 µM.
On to `CC(=O)C1=C(C)N(c2cccc(C(F)(F)F)c2)C(=O)N(C)C1c1ccc(C#N)cc1C(=O)NCC(C)(C)O` (stereo not shown) [Example 1.22], for which, in data set [2], the Papp A→B at 10 μM turned out to be 7.8 ×10⁻⁶ cm/s and the Papp B→A at 10 μM was determined as 81 ×10⁻⁶ cm/s. This compound had a solubility at 24 h in the data set “Aqueous solubility” of 65 µg/mL (≈ 123 µM).
For `CC(=O)C1=C(C)N(c2cccc(C(F)(F)F)c2)C(=O)N(C)C1c1ccc(C#N)cc1C(=O)NCC#N` (stereo not shown) [Example 1.6], in the data set on Caco-2 cells, the PEAB was found to be 10 ×10⁻⁶ cm/s and the PEBA was 81 ×10⁻⁶ cm/s. For the same compound, the Aqueous solubility in “Aqueous solubility” worked out at 70 µg/mL.
For `CC(=O)C1=C(C)N(c2cccc(C(F)(F)F)c2)C(=O)N(C)C1c1ccc(C#N)cc1C(=O)N1CCn2ncnc2C1` (stereo not shown) [Example 1.73], in data set [2], the Papp A→B at 10 μM came to 5.1 ×10⁻⁶ cm/s and the Papp B→A at 10 μM was determined as 92 ×10⁻⁶ cm/s. In addition, in the data set “Aqueous solubility”, the concentration in solution (solubility at 24 h) came to 73 µg/mL (≈ 130 µM).
Regarding `CC(=O)C1=C(C)N(c2cccc(C(F)(F)F)c2)C(=O)N(C)[C@@H]1c1ccc(C#N)cc1-c1ccn(C)c(=O)c1` [Example 17, 4-[(R)-5-Acetyl-3,6-dimethyl-2-oxo-1-(3-trifluoromethyl-phenyl)-1,2,3,4-tetrahydro-pyrimidin-4-yl]-3-(1-methyl-2-oxo-1,2-dihydro-pyridin-4-yl)-benzonitrile], in data set [2], the Papp A→B at 10 μM worked out at 11 ×10⁻⁶ cm/s and the Papp B→A at 10 μM came to 114 ×10⁻⁶ cm/s. Further, the concentration in solution in the data set “Aqueous solubility” (solubility at 24 h) was 62 µg/mL (≈ 119 µM).
`CC(=O)C1=C(C)N(c2cccc(C(F)(F)F)c2)C(=O)N(C)C1c1ccc(C#N)cc1C(=O)NCCF` (stereo not shown) [Example 1.10]: in the data set on Caco-2 cells, the PEAB is 39 ×10⁻⁶ cm/s and the PEBA came out at 78 ×10⁻⁶ cm/s. In the data set “Aqueous solubility”, the Aqueous solubility was 66 µg/mL.
